Where a name gives a salt, the structure may show the parent alone. Read-outs that look alike come from different tables or passages of the source.
How the values were obtained:
[1] = target: T1, Na^+ /H^+ exchange transport (rat platelets) (Rattus norvegicus, UniProt P26431); assay: Inhibition studies on Na^+ /H^+ exchange transport: swelling of rat platelets induced by sodium propionate; type: cell-based, rat (Wistar); conditions: rat platelet swelling, sodium propionate buffer pH 6.7, 20 seconds; 300 μM amiloride = 100% inhibition; read-out: IC5O value (inhibitory actions of test compounds on Na^+ /H^+ exchange transport)
T1 construct: the thus collected supernatant was used as platelet rich plasma; endogenous in cells; host or cells: platelets (platelet rich plasma) of Wistar rat
Procedure: The Na^+ /H^+ exchange transport inhibitory activity was measured in accordance with the method of Scholz et al. [Br. J. Pharmacol., 109, 562 (1993)], using the swelling of rat platelets induced by sodium propionate as an index.
Under ether anesthesia, blood sample (8 ml) was collected from the abdominal aorta of Wistar rat and mixed with 1 ml of acid citrate dextrose as an anticoagulant. The resulting mixture was immediately centrifuged at 90×g for 10 minutes, and the thus collected supernatant was used as platelet rich plasma. Next, the thus prepared platelet rich plasma (10×10^6 platelets/50 μl) was added to 250 μl of 140 mM sodium propionate buffer (pH 6.7, 1% dimethyl sulfoxide in final concentration) containing each test compound dissolved in dimethyl sulfoxide, and the decrease in absorbance caused by the swelling of platelets was periodically measured using Hema-Tracer (manufactured by Nk).
The decreased absorbance ratio 20 seconds after the addition of platelet rich plasma was measured as the Na^+ /H^+ exchange activity, and the inhibitory activity of each test compound was expressed as relative activity when the action of 300 μM amiloride was defined as 100% inhibition.
In this case, each test result was evaluated from 50% inhibition concentration (IC50 value) by using probit methods.

[2] = background statement; cited from earlier work
[3] = test system: Na^+ /H^+ exchange transport; conditions: background statement, Circulation, 79, 1257 (1989); cited from earlier work
male SD rats [4] = test system: male SD rats; design: species or system rat (SD); conditions: rat, in vivo, iv, 100 mg/kg
male SD rats [5] = test system: male SD rats; design: species or system rat (SD); conditions: rat, in vivo, iv, 10 mg/kg

T1 sequence (P26431 whole entry): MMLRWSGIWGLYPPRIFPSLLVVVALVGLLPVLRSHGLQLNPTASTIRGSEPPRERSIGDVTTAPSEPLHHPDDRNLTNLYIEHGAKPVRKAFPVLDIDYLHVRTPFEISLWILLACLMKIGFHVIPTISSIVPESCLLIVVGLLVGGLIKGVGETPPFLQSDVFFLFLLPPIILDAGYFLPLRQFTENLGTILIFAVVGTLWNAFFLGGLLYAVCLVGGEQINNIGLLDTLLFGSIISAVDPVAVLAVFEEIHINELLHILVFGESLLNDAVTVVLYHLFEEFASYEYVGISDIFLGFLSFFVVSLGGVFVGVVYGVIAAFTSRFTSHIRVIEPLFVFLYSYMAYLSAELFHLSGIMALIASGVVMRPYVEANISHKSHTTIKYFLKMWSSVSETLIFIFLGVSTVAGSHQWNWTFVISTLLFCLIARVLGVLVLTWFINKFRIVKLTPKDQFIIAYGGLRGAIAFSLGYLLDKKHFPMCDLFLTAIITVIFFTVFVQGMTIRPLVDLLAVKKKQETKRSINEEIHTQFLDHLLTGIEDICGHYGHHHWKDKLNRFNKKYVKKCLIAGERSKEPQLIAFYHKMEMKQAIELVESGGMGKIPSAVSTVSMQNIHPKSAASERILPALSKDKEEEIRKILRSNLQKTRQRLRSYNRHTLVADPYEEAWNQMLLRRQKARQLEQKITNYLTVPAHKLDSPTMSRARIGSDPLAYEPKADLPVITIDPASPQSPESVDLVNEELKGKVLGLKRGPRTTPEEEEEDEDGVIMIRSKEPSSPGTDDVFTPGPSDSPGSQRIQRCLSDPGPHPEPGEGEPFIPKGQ

SMILES	IC50 [1]	further results
COc1nc2c(cc1C(=O)N=C(N)N)CCCCC2 [Compound I, 2-Methoxy-6,7,8,9-tetrahydro-5H-cyclohepta[b]pyridine-3-carbonylguanidine]	≥ 1000 nM	–
NC(N)=NC(=O)c1cc2c(nc1-c1cccnc1)CCCCC2 [Compound J, 2-(3-Pyridyl)-6,7,8,9-tetrahydro-5H-cyclohepta[b]pyridine-3-carbonylguanidine]	≥ 1000 nM	–
Cc1nc2c(cc1C(=O)N=C(N)N)CCCC=C2 [Compound K, 2-Methyl-6,7-dihydro-5H-cyclohepta[b]pyridine-3-carbonylguanidine]	≤ 99 nM	–
N=C(N)NC(=O)c1nc(Cl)c(N)nc1N [amiloride]	–	accompanying actions [2]: accompanies hypotensive action and salt excretion action; anti-arrhythmic action [2]: weak; Na^+ /H^+ exchange transport inhibitory action [3]: has a Na^+ /H^+ exchange transport inhibitory action
Cc1nc2c(cc1C(=O)N=C(N)N)CCCC=C2 [maleic acid salt of the compound (K), 2-Methyl-6,7-dihydro-5H-cyclohepta[b]pyridine-3-carbonylguanidine maleate]	–	death cases (male SD rats [4]): no death cases were found; toxic changes attributable to the compound (K) (male SD rats [4]): no toxic changes attributable to the compound (K) were observed; death cases (male SD rats [5]): no death cases were found; toxic changes attributable to the compound (K) (male SD rats [5]): no toxic changes attributable to the compound (K) were observed

Now from value to molecule, other results behind:

IC50 [1]	SMILES	further results
100 to 990 nM	Cc1nc2c(cc1C(=O)N=C(N)N)CCCC2O (stereo not drawn) [Compound A, 8-Hydroxy-2-methyl-5,6,7,8-tetrahydrocyclohexa[b]pyridine-3-carbonylguanidine]	–
≤ 99 nM	Cc1nc2c(cc1C(=O)N=C(N)N)CC(C)CC2 (stereo not drawn) [Compound B, 2,6-Dimethyl-5,6,7,8-tetrahydrocyclohexa[b]pyridine-3-carbonylguanidine]	–
≤ 99 nM	CCc1nc2c(cc1C(=O)N=C(N)N)CCCCC2 [Compound C, 2-Ethyl-6,7,8,9-tetrahydro-5H-cyclohepta[b]pyridine-3-carbonylguanidine]	–
100 to 990 nM	Cc1nc2c(cc1C(=O)N=C(N)N)C(O)CCCC2 (stereo not drawn) [Compound D, 5-Hydroxy-2-methyl-6,7,8,9-tetrahydro-5H-cyclohepta[b]pyridine-3-carbonylguanidine]	–
≤ 99 nM	Cc1nc2c(cc1C(=O)N=C(N)N)CCCCC2C (stereo not drawn) [Compound E, 2,9-Dimethyl-6,7,8,9-tetrahydro-5H-cyclohepta[b]pyridine-3-carbonylguanidine]	–
≤ 99 nM	COC1CCCCc2cc(C(=O)N=C(N)N)c(C)nc21 (stereo not drawn) [Compound F, 9-Methoxy-2-methyl-6,7,8,9-tetrahydro-5H-cyclohepta[b]pyridine-3-carbonylguanidine]	–
100 to 990 nM	NC(N)=NC(=O)c1cc2c(nc1C(F)(F)F)CCCCC2 [Compound G, 2-Trifluoromethyl-6,7,8,9-tetrahydro-5H-cyclohepta[b]pyridine-3-carbonylguanidine]	–
≤ 99 nM	NC(N)=NC(=O)c1cc2c(nc1Cl)CCCCC2 [Compound H, 2-Chloro-6,7,8,9-tetrahydro-5H-cyclohepta[b]pyridine-3-carbonylguanidine]	–

From patent publication US6258829A, “Cycloalka[b]pyridine-3-carbonylguanidine derivatives, process for producing the same, and drugs containing the same” (priority 1997, dated 2001)
